Read-outs that look alike come from different tables or passages of the source.
Legend:
[1] = test system: P. falciparum K1; assay: In vitro antiplasmodial activity, P. falciparum K1 (lactate dehydrogenase assay); type: cell-based, Plasmodium falciparum; settings: for IC50: Plasmodium falciparum, chloroquine-resistant strain K1, 48 h, mean ± SE, read-out: Activity against P. falciparum K1, IC50
Method: P. falciparum (K1 clone) was maintained in human erythrocytes prepared from the donated blood samples (blood groups unknown, Ethical Tissue, University of Bradford), suspended in the RPMI 1640 medium as previously described ([Wright et al., 2001]), except that serum was replaced with Albumax II, [5% (^w/v)]. […] Twofold serial dilutions were made in 96-well microtiter plates in duplicate, and infected erythrocytes were added to give a final volume of 100 µL with 2.5% hematocrit and 1% parasitemia. Chloroquine diphosphate was used as a positive control, and uninfected and infected erythrocytes without compounds were included in each test. The plates were placed into a modular incubator; gassed with 93% nitrogen, 3% oxygen, and 4% carbon dioxide; and incubated at 37°C for 48 h. The parasite growth was assessed by measuring lactate dehydrogenase activity as described by [Makler et al. (1993)]. The reagent used contained the following in each mL: acetylpyridine adenine dinucleotide (APAD), 0.74 mg; lithium lactate, 19.2 mg; diaphorase, 0.1 mg; Triton X-100, 2 μL; nitroblue tetrazolium, 1 mg; and phenazine ethosulphate, 0.5 mg. Fifty microliter of this reagent was added to each well and mixed; plates were incubated for 15 min at 37°C. The optical densities were read at 550 nm using an Azure 96-well microplate reader (Azure Biosystems Inc.), and % inhibition of growth was calculated by comparison with the control values. IC50 values were determined using linear regression analysis (Microsoft Excel). A minimum of three separate determinations was carried out for each compound.

[2] = test system: P. knowlesi A1-H.1; assay: In vitro antiplasmodial activity, P. knowlesi A1-H.1 (SYBR Green I); type: cell-based, Plasmodium knowlesi; settings: 27 h
Method: P. falciparum (3D7 clone) and P. knowlesi (A1-H.1 clone) were maintained in culture in RPMI 1640 supplemented with 25 mM HEPES, 25 mM NaHCO3, 10 mM D-glucose, 2 mM L-glutamine, 50 mg/L hypoxanthine, 25 mg/L gentamicin sulfate, 5 g/L Albumax II, and 10% (v/v) equine serum (Thermo Fisher Scientific, 26-050-088). The P. falciparum (3D7) and P. knowlesi (A1-H.1) parasites were grown in human A^+ red blood cells (National Health Blood and Transplant, United Kingdom). The parasites were incubated in sealed flasks at 37°C under a culture gas mixture of 96% N2, 3% CO2, and 1% O2. ([van Schalkwyk et al., 2019]). The compounds were initially dissolved in DMSO prior to diluting in RPMI. All experiments were initiated using unsynchronized parasites with both the parasitemia and hematocrit set to 1%. Drug susceptibility assays were set up in 96-well, flat-bottom microplates in a final volume of 200 μL, as described previously ([van Schalkwyk et al., 2017]). The controls were included for the background fluorescence (0% viability; parasites exposed to a supralethal 10 μM chloroquine concentration) and 100% growth (parasites in drug-free wells). The plates were incubated for one complete life cycle (27 h for P. knowlesi or 48 h for P. falciparum in vitro) at 37°C in a modular incubation chamber (Billups-Rothenburg Inc.) under the culture gas. Upon termination of the assay, the plates were stored at −20°C overnight. The SYBR Green I fluorescent method was used to measure parasite survival ([Bennett et al., 2004]; [Smilkstein et al., 2004]). After the microplates were thawed, 100 μL from each well was transferred into a duplicate plate. To this was added 100 μL of SYBR green solution [SYBR Green I (Thermo Fisher Scientific, S7563), diluted 1:5000 in a lysis buffer made of 20 mM Tris, 5 mM EDTA, 0.008% (w/v) saponin, 0.08% (v/v) Triton X-100, pH 7.5]. The plates were stored in the dark for 1 h before fluorescence was read at a 490 nm excitation wavelength and a 520 nm emission wavelength on a Spectramax M3 microplate reader (Molecular Devices) ([van Schalkwyk et al., 2017]). The background fluorescence (wells with parasites at 0% viability) was subtracted from all drug assay wells, and the parasite proliferation was determined as a percentage of the fluorescence in the drug-free control wells.

[3] = test system: Hep G2-A16-CD81 cells; assay: Hep G2 cellular toxicity counter-screen (CellTiterGlo); type: cell-based; settings: HepG2-A16-CD81, no sporozoites, ± SE, read-out: Activity against Hep G cells
Method: Briefly, 3000 Hep G2-A16-CD81 cells/well were seeded in 1536-well plates (Greiner Bio). 50 nL of the test and control compound diluted in DMSO was added and incubated for 24 h. […] The plates were centrifuged for 5 min at 330 × g and incubated at 37°C. Forty-eight hours post infection, 2 μL of luciferin reagent (Promega BrightGlo) was added to each well, and the luciferase activity was detected using a Perkin Elmer Envision plate reader. […] To counter-screen for cellular toxicity, Hep G2-A16-CD81 cells were seeded as above for the sporozoite liver-stage assay but in the absence of sporozoites. Toxicity measurements were performed by adding Promega CellTiterGlo® (2 μL), followed by luminescence measurements. Curve fitting was done as described above using puromycin (25 μM) as a positive control and DMSO as negative control wells.

[4] = In vitro activity against T. brucei bloodstream forms (resazurin); type: cell-based, Trypanosoma brucei; settings: human; SI compared with Hep G cells (Table 1); read-out: Selectivity index (SI), T. brucei compared with cytotoxicity to Hep G cells (converted)
Method: (§1) Bloodstream form T. brucei (strain 427, derivative 221) was maintained in modified Iscove’s medium, as described previously ([Taylor et al., 2013]). […] The parasites were diluted to 1 × 10^4 ml^−1, the compound was added at a range of concentrations, and the plates were incubated at 37°C in 5% CO2 for 48 h. Resazurin was then added to each well, and the plates were incubated for a further 16 h. Fluorescence intensities were determined using a BMG FLUOstar Omega plate reader (excitation 545 nm, emission 590 nm), and data were analyzed using Graph Pad Prism 9.0 software. […]

[5] = test system: T. brucei bloodstream forms (strain 427, derivative 221); assay: as above; type: cell-based, Trypanosoma brucei; settings: Trypanosoma brucei, bloodstream forms, hydrochloride salts except 6 (citrate), ± SE; for IC50: 64 h, 48 h + 16 h resazurin
Method: as §1

[6] = Plasmodium knowlesi, read-out: Activity against P. knowlesi A1-H.1, IC50, 27 h, ± SD

Structure (SMILES)	IC50 [1] [nM]	Selectivity index (SI), P. falciparum K1 with respect to Hep G cells [1]	IC50 [2, 6] [nM]	IC50 [3] [nM]	selectivity ratio at 48 h [4]	IC50 [5] [nM]	IC90 [5] [nM]	IC50 ([2]; read-out: Activity against P. knowlesi A1-H.1, IC50, ± SD) [nM]
C[n+]1c2ccccc2cc2[n-]c3c(I)cc(I)cc3c21 [Compound 6, 7,9-diiodocryptolepine]	250 ± 40	113	1040 ± 220	28200 ± 4100	478	59 ± 13	114 ± 11	–
C[n+]1c2ccccc2cc2[n-]c3c(Br)cc(Br)cc3c21 [Compound 4, 7,9-Dibromocryptolepine]	440 ± 90	15.4	1120 ± 450	6790 ± 920	240	28.3 ± 0.5	40.3 ± 6.1	–
C[n+]1c2ccccc2cc2[n-]c3ccc(I)cc3c21 [Compound 5, 7-iodocryptolepine]	160 ± 30	41.9	110	6700 ± 500	82.4	81.3 ± 2.5	113 ± 11	104 ± 40

— article PMC9119314 (Frontiers in Pharmacology, 2022)
